Results as given in patent US20240390335A1, “PHARMACEUTICAL COMPOSITION CONTAINING BETA-LACTAM COMPOUND AND USE THEREOF” (priority 2021, published 2024).
≈ marks a conversion by molar mass, not a printed value.

How the values were obtained:
[1] = test system: Klebsiella pneumoniae ATCC BAA2146 (NDM-1); details: avibactam itself; stated as well known to those skilled in the art; cited from earlier work
Escherichia coli [2] = assay: Combined in vitro use, checkerboard dilution method; format: cell-based; details: compound of formula (I-1) combined with avibactam
Procedure: (§1) Mueller-Hinton broth (MH broth) medium, Trypticase Soy Broth (TSB Broth) medium, purchased from BD Difco, Cockeysville, MD, USA; • 96-well plate: Corning Costar, Cambridge, MA, USA; • Test method: the checkerboard dilution method was used for determination.
(§2) (1) Preparation of the test samples: 4 mg of each sample was taken and was prepared into a test solution at 2,048 μg/mL with MH broth, and the test solution was diluted two-fold in a 96-well plate to prepare solutions of a series of gradient concentrations.
(§3) (2) Preparation of a bacteria solution: The test strains were amplified by Trypticase Soy Broth (TSB Broth) according to the CLSI/NCCLS standard.
(§4) (3) Addition of the samples: 10 μL of the bacteria solution with a concentration of 6×10^5 CFU/mL was pipetted into each well of the 96-well plate. Each well contained the antibacterial drugs (the compound of formula (I-1) and the compound of formula (I-2)) diluted two-fold with broth and the aforementioned lactamase inhibitor or efflux pump inhibitor. […] The samples were mixed thoroughly. Three parallel experiments were set up for each concentration and the results were averaged. To the negative control group, 10 μL of the bacterial solution and 90 μL MH broth were added.
(§5) (4) Incubation: the 96-well plate was placed in a 37° C. constant-temperature incubator for 18 hours, and the growth of the strains was observed.
(§6) (5) Calculation: The in vitro effect of each drug-inhibitor combination was analyzed by calculating the FICI value: FICI=(MIC of drug A in the combination/MIC of drug A alone)+ (MIC of drug B in the combination/MIC of drug B alone).
(§7) In order to ensure the reliability of the data, three repeated tests were conducted on different dates and the results were averaged.

Klebsiella pneumoniae [3] = assay: as above; format: cell-based
Procedure: as §1, §2, §3, §4, §5, §6, §7

Enterobacter cloacae [4] = assay: as above; format: cell-based; details: compound of formula (I-1) combined with avibactam; Enterobacter cloacae ATCC 2468
Procedure: as §1, §2, §3, §4, §5, §6, §7

Escherichia coli [5] = assay: MIC assay of individual compounds (microdilution, CLSI/NCCLS); format: cell-based; details: individual compound
Procedure: (§8) Mueller-Hinton broth (MH broth) medium, Trypticase Soy Broth (TSB Broth) medium, purchased from BD Difco, Cockeysville, MD, USA; • 96-well plate: Corning Costar, Cambridge, MA, USA; • Test method: the antibacterial activities were tested by the microdilution method according to the CLSI/NCCLS standard.
(§9) (1) Preparation of the test samples: 4 mg of each sample was taken, and was prepared into a test solution at 1,024 μg/mL with MH broth, and the test solution was diluted two-fold in a 96-well plate to prepare solutions of a series of gradient concentrations, the volume in each well being 90 μL.
as §3
(§10) (3) Addition of the samples: a bacteria solution with a concentration of 6×10^5 cfu/mL was prepared, and 10 μL of the bacteria solution was pipetted into each well of the 96-well plate. Three parallel experiments were set up for each concentration and the results were averaged. To the negative control group, 10 μL of the bacterial solution and 90 μL MH broth were added.
(§11) (4) Incubation: the 96-well plate was placed in a 37° C. constant-temperature incubator for 18 hours, and the growth of the strains was observed. The drug concentration in the well with no microbial growth was recorded as the MIC.

Klebsiella pneumoniae [6] = assay: as above; format: cell-based; details: individual compound
Procedure: as §8, §9, §3, §10, §11

Enterobacter cloacae [7] = assay: as above; format: cell-based; details: individual compound
Procedure: as §8, §9, §3, §10, §11

[8] = test system: drug-resistant Enterobacteriaceae; assay: MIC assay of individual compounds, summary over Enterobacteriaceae strains; format: cell-based; details: against the aforementioned Enterobacteriaceae
Procedure: as §8, §9, §3, §10, §11

[9] = Escherichia coli CCPM(A)-P-071301

## NC(=O)[C@@H]1CC[C@@H]2CN1C(=O)N2OS(=O)(=O)O [Avibactam, avibactam]
[1]
  in vivo antibacterial effect on the test strain: no in vivo antibacterial effect
Escherichia coli [2]; Escherichia coli ATCC 2469
  MIC in combination: 1 µg/mL
Escherichia coli [2]; [9]
  MIC in combination: 1 µg/mL
Klebsiella pneumoniae [3]; compound of formula (I-1) combined with avibactam, Klebsiella pneumoniae ATCC 2146
  MIC in combination: 2 µg/mL
Klebsiella pneumoniae [3]; compound of formula (I-1) combined with avibactam, Klebsiella pneumoniae ATCC 700603
  MIC in combination: 0.5 µg/mL
Klebsiella pneumoniae [3]; compound of formula (I-1) combined with avibactam, Klebsiella pneumoniae CCPM(A)-0814R18
  MIC in combination: 0.5 µg/mL
Klebsiella pneumoniae [3]; compound of formula (I-1) combined with avibactam, Klebsiella pneumoniae CCPM(A)-0814R33
  MIC in combination: 2 µg/mL
Klebsiella pneumoniae [3]; compound of formula (I-1) combined with avibactam, Klebsiella pneumoniae CCPM(A)-0817R61
  MIC in combination: 0.5 µg/mL
Klebsiella pneumoniae [3]; compound of formula (I-1) combined with avibactam, Klebsiella pneumoniae CCPM(A)-081705
  MIC in combination: 8 µg/mL
Klebsiella pneumoniae [3]; compound of formula (I-1) combined with avibactam, Klebsiella pneumoniae CCPM(A)-081715
  MIC in combination: 0.5 µg/mL
Klebsiella pneumoniae [3]; compound of formula (I-1) combined with avibactam, Klebsiella pneumoniae CCPM(A)-081716
  MIC in combination: 8 µg/mL
Klebsiella pneumoniae [3]; compound of formula (I-1) combined with avibactam, Klebsiella pneumoniae CCPM(A)-081729
  MIC in combination: 8 µg/mL
Klebsiella pneumoniae [3]; compound of formula (I-2) combined with avibactam, Klebsiella pneumoniae ATCC 2146
  MIC in combination: 0.5 µg/mL
Klebsiella pneumoniae [3]; compound of formula (I-2) combined with avibactam, Klebsiella pneumoniae ATCC 700603
  MIC in combination: 0.5 µg/mL
Klebsiella pneumoniae [3]; compound of formula (I-2) combined with avibactam, Klebsiella pneumoniae CCPM(A)-081715
  MIC in combination: 4 µg/mL
Klebsiella pneumoniae [3]; compound of formula (I-2) combined with avibactam, Klebsiella pneumoniae CCPM(A)-081729
  MIC in combination: 4 µg/mL
Enterobacter cloacae [4]
  MIC in combination: 4 µg/mL
Escherichia coli [5]; Escherichia coli ATCC 2469
  MIC: 16 µg/mL (≈ 60.3 µM)
Escherichia coli [5]; [9]
  MIC: 16 µg/mL (≈ 60.3 µM)
Klebsiella pneumoniae [6]; Klebsiella pneumoniae ATCC 2146
  MIC: 8 µg/mL (≈ 30.2 µM)
Klebsiella pneumoniae [6]; Klebsiella pneumoniae ATCC 700603
  MIC: 16 µg/mL (≈ 60.3 µM)
Klebsiella pneumoniae [6]; Klebsiella pneumoniae CCPM(A)-0814R18
  MIC: 16 µg/mL (≈ 60.3 µM)
Klebsiella pneumoniae [6]; Klebsiella pneumoniae CCPM(A)-0814R33
  MIC: 16 µg/mL (≈ 60.3 µM)
Klebsiella pneumoniae [6]; Klebsiella pneumoniae CCPM(A)-0817R61
  MIC: 32 µg/mL (≈ 121 µM)
Klebsiella pneumoniae [6]; Klebsiella pneumoniae CCPM(A)-081301
  MIC: 32 µg/mL (≈ 121 µM)
Klebsiella pneumoniae [6]; Klebsiella pneumoniae CCPM(A)-081705
  MIC: 16 µg/mL (≈ 60.3 µM)
Klebsiella pneumoniae [6]; Klebsiella pneumoniae CCPM(A)-081715
  MIC: 32 µg/mL (≈ 121 µM)
Klebsiella pneumoniae [6]; Klebsiella pneumoniae CCPM(A)-081716
  MIC: 16 µg/mL (≈ 60.3 µM)
Klebsiella pneumoniae [6]; Klebsiella pneumoniae CCPM(A)-081729
  MIC: 32 µg/mL (≈ 121 µM)
Enterobacter cloacae [7]; Enterobacter cloacae ATCC 2468
  MIC: 32 µg/mL (≈ 121 µM)
Enterobacter cloacae [7]; Enterobacter cloacae CCPM(A)-P-111719
  MIC: 32 µg/mL (≈ 121 µM)
[8]
  activity of the inhibitor itself: relatively weak activities
